From patent US11767344B2, “Pharmaceutically acceptable salts of polypeptides and methods of inhibiting the interaction between psd-95 and n-methyl-d-aspartic acid receptor (nmdar)” (BIOCELLS (BEIJING) BIOTECH CO., LTD., priority 2017, dated 2023)
“Also recorded” adds a separate entry of the source.

Legend:
PC12 cells = conditions: 5 μM, 24 hours
PDZ1/2 domain [1] = molecular target: T1, PDZ1/2 domain (Homo sapiens, UniProt P78352)
PDZ1/2 domain [2] = molecular target: T1, PDZ1/2 domain; conditions: His beads, SDS-PAGE of eluate, FIG. 1

T1 sequence (P78352 61-249 limits assumed): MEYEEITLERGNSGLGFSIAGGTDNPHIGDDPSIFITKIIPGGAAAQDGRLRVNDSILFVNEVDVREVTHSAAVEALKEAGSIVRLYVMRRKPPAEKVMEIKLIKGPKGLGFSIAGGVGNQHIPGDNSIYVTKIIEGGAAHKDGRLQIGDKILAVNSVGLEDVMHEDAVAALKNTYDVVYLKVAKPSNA

| SMILES | cytotoxicity (cell viability) (PC12 cells) | interaction with the PDZ1/2 domain as compared with control chimeric peptide NA-1 (PDZ1/2 domain [1]) | binding to PDZ1/2 domain in pull-down assay (PDZ1/2 domain [2]) |
| --- | --- | --- | --- |
| CC[C@H](C)[C@H](NC(=O)[C@H](CCC(=O)O)NC(=O)[C@@H](NC(=O)[C@H](CC(=O)O)NC(=O)[C@H](CC(C)C)NC(=O)[C@H](CC(C)C)NC(=O)[C@H](CCCCN)NC(=O)[C@H](CCC(=O)O)NC(=O)[C@H](Cc1ccc(O)cc1)NC(=O)[C@H](CCCNC(=N)N)NC(=O)[C@H](CCCNC(=N)N)NC(=O)[C@H](CCCNC(=N)N)NC(=O)[C@H](CCC(N)=O)NC(=O)[C@H](CCCNC(=N)N)NC(=O)[C@H](CCCNC(=N)N)NC(=O)[C@H](CCCCN)NC(=O)[C@H](CCCCN)NC(=O)[C@H](CCCNC(=N)N)NC(=O)CNC(=O)[C@@H](N)Cc1ccc(O)cc1)[C@@H](C)O)C(=O)O [P5-Ac] | no significant cytotoxicity | – | – |
| CC[C@H](C)[C@H](NC(=O)[C@H](CCC(=O)O)NC(=O)[C@@H](NC(=O)[C@H](CC(=O)O)NC(=O)[C@H](CC(C)C)NC(=O)[C@H](CC(C)C)NC(=O)[C@H](CCCCN)NC(=O)[C@H](CCC(=O)O)NC(=O)[C@H](Cc1ccc(O)cc1)NC(=O)[C@H](CCCNC(=N)N)NC(=O)[C@H](CCCNC(=N)N)NC(=O)[C@H](CCCNC(=N)N)NC(=O)[C@H](CCC(N)=O)NC(=O)[C@H](CCCNC(=N)N)NC(=O)[C@H](CCCNC(=N)N)NC(=O)[C@H](CCCCN)NC(=O)[C@H](CCCCN)NC(=O)[C@H](CCCNC(=N)N)NC(=O)CNC(=O)[C@@H](N)Cc1ccc(O)cc1)[C@@H](C)O)C(=O)O [P5] | – | interacted more strongly | can bind to the PDZ1/2 domain; also recorded: capable of binding to PDZ1/2 domain |
